The values that follow come from publication PMC6874683, “Pyrrothiogatain acts as an inhibitor of GATA family proteins and inhibits Th2 cell differentiation in vitro” (Scientific Reports, 2019).

“Also recorded” adds a separate entry of the source.

The test system of one assay is GATA3 expression. As to the kind of experiment: Intracellular staining of GATA3, CD4+ T cells under IL-2 conditions. As to conditions: 30 µM, two days. In kind it is cell-based, mouse. The procedure: The in vitro differentiated CD4^+ T cells were stimulated using an immobilized anti-TCR-β mAb (3 µg/ml, H57–597, BioLegend) for 6 h in the presence of monensin (2 µM). The cells were fixed with 4% paraformaldehyde (Cat#163–20145, Wako) and permeabilized with permeabilization buffer (50 mM NaCl, 5 mM EDTA, 0.02% NaN3, and 0.5% Triton X-100). Then, the cells were stained using the following antibodies, anti-IL-4-PE (Cat#504103, BioLegend, 1:50), anti-IL-5-APC (Cat#504305, BioLegend, 1:50), anti-IL-13-PE (Cat#12–7133–41, eBiosience, 1:50), anti-IFN-γ-FITC (Cat#562019, BD Biosciences, 1:500), and anti-IL-2-APC (Cat#503809, BioLegend, 1:50). For the intracellular staining of Gata3, the Foxp3/Transcription Factor Staining Buffer Kit (cat#TNB-0607, TONBO) was used according to the manufacturer’s protocol. Flow cytometry was performed using a Gallios Flow Cytometer instrument (Beckman Coulter) and a FACS Caliber instrument (BD Biosciences) and the results were analysed using the FlowJo software program (Tree Star, Ashland, OR, USA).
(D) Intracellular staining of GATA3 in CD4+ T cells stimulated with immobilized anti-TCRβ mAb plus anti-CD28 mAb under IL-2 conditions in the presence or absence of pyrrothiogatain (30 µM) for two days.

A further assay relates to Th1 cell differentiation. As to the kind of experiment: Th1 cell differentiation, naive CD4+ T cells under Th1 conditions. Type of assay: cell-based, mouse. The settings on record: 80 µM, five days. The procedure: C57BL/6 mice were purchased from Clea (Clea Japan, Inc., Tokyo, Japan). Total CD4^+ T cells isolated from mouse spleen were prepared using a FITC anti-mouse CD4 antibody (Cat#100510, RM4–5, BioLegend) and anti-FITC-microbeads (Cat#130-097-050, Miltenyi Biotec). Naive CD4^+ T cells (CD44^low, CD62L^high) were prepared using a MojoSort Mouse CD4 T cell Isolation Kit (Cat#480033), BioLegend). Biotinylated anti-CD44 (Cat#103004, IM7) and anti-CD25 antibodies (Cat#102004, PC61) were purchased from BioLegend. CD4^+ T cells (7.5 × 10^5) were stimulated using immobilized anti-TCR-β mAb (3 µg/mL, H57–597, BioLegend) plus an anti-CD28 mAb (1.0 µg/mL, cat#40–0281, TONBO Biosciences) for 2 days, and then, the cells were further expanded under similar conditions for an additional 3 days. […]
The in vitro differentiated CD4^+ T cells were stimulated using an immobilized anti-TCR-β mAb (3 µg/ml, H57–597, BioLegend) for 6 h in the presence of monensin (2 µM). […] Flow cytometry was performed using a Gallios Flow Cytometer instrument (Beckman Coulter) and a FACS Caliber instrument (BD Biosciences) and the results were analysed using the FlowJo software program (Tree Star, Ashland, OR, USA). […]
(B) Cytokine production induced in the pyrrothiogatain-treated Th1 cells shown in panel (A) was determined by ELISA.

In assay [1] the test system is OVA-induced allergic mice. Kind of assay: OVA-induced allergic airway inflammation model. Type of assay: in vivo, mouse. The settings on record: 20 mg/kg intraperitoneally every day from day 0 to 6, versus vehicle control. The procedure:
C57BL/6 mice at 7 weeks old were immunized intraperitoneally with 100 µg OVA (Cat#A5503, Sigma) in 2 % aluminium hydroxide gel (Cat#vax-alu-250, InvivoGen) on day 0. The mice were challenged intranasally with 100 µg OVA in saline on days 7, 8 and 9. Pyrrothiogatain was administrated intraperitoneally at a concentration of 20 mg/kg in PBS every day from day 0 to 6. The day after the last OVA challenge, BAL fluid cells were subjected to histological examination using the Diff Quick stain (Cat#16920, Sysmex). All animal experiments received approval from the Ehime University Administrative Panel for Animal Care. All animal care was conducted in accordance with the guidelines of Ehime University.

For the compound `Cc1ccc(C)n1-c1ccsc1C(=O)O` [Pyrrothiogatain, 3-(2,5-dimethyl-1H-pyrrol-1-yl)thiophene-2-carboxylic acid], the “Expression of GATA3, protein level” value in the assay with GATA3 expression is on record as “not influenced”. Further, the “Generation of IFN-γ and IL-2 producing Th1 cells” value with Th1 cell differentiation is on record as “modestly increased”. In addition, the “Number of inflammatory cells in the bronchoalveolar lavage (BAL) fluid” value in assay [1] is “no significant difference; also recorded: did not significantly decrease”.
